Marks after values point to notes of the source that are not given here.
Experiments:
Format in all cases: in vivo, rat
[1] = test system: experimental model of irritable bowel syndrome (IBS) in rats induced by deoxycholic acid (DCA); experiment: DCA-induced IBS in rats: abdominal withdrawal reflex to colorectal distension (CRD); conditions: oral daily, 30 mg/kg (table), mean ± SEM
Description: (§1) Male Sprague Dawley rats (240-320 g) were administered DCA once daily on 3 consecutive days, and then divided into the different experimental groups (n=8): three received orally and daily CPM (40 and 100 mg/kg) or Gabapentin (70 mg/kg); a non IBS and an untreated control IBS group were also included. One and two weeks after, abdominal withdrawal reflex to colorectal distension (CRD) was semi quantitatively scored. Also the referred pain was evaluated with Von Frey filaments. After two weeks of treatment, all rats were sacrificed and the expression of different markers IL-1β and COX-2 evaluated in the colonic tissue by qPCR.

[2] = test system: experimental model of irritable bowel syndrome (IBS) in rats induced by deoxycholic acid (DCA); experiment: DCA-induced IBS in rats: referred pain with Von Frey filaments (AUC)
Description: as §1

IL-1β = experiment: DCA-induced IBS in rats: colonic IL-1β expression by qPCR; conditions: colonic tissue, two weeks oral daily, 30 mg/kg (table), mean ± SEM
Description: as §1

COX-2 = experiment: DCA-induced IBS in rats: colonic COX-2 expression by qPCR; conditions: colonic tissue, two weeks oral daily, 30 mg/kg (table), mean ± SEM
Description: as §1

SMILES: NCC1(CC(=O)O)CCCCC1 [Gabapentin]
- CRD [1]: 0.25 ± 0.1^a units
- referred pain (in words) ([2]; Von Frey filaments): attenuated
- AUC ([2]; oral daily, 30 mg/kg (table), mean ± SEM): 27.30 ± 6.83^a arbitrary units
- qPCR IL-1β (IL-1β): 8.28 ± 1.38^c fold increase
- qPCR COX-2 (COX-2): 1.74 ± 0.36^c fold increase
